Results: US12491246B2, “Combination therapy of arms and natural killer cells” (KLEO PHARMACEUTICALS, INC., priority 2018, dated 2025)

Assays:
CIML NK cells = assay: CIML NK cell fratricide assay; type: cell-based
Protocol: (§1) PBMC isolation: Leukopheresis product from a donor with body mass index (BMI) between 19-25, under 50 years old, not on immuno-suppressive drugs for at least 2 weeks with an estimated PBMC cell count of >10^10 was obtained from Key Biologics (subject ID 20982200) and transported at ambient temperature. Leukopheresis bag was wiped down with 70% EtOH, a small slit was made and contents were pipetted off into tubes. Leukopak contents were diluted 1:1 with PBS without Ca++/Mg++ and 20 ml of this mixture was layered on top of 25 mL of Ficoll. Tubes were then centrifuged at 400 g for 30 minutes without brakes. PBMCs were harvested from the interface into separate tubes, and tubes were filled to 50 mL with PBS. Cells were centrifuged for 10 min at 120 g to get rid of platelets. Supernatant was poured off and cells were re-suspended in RPMI 10% FBS at a concentration of 7-10×10^6 cells/ml. Cells were cultured overnight at 37C in a 5% CO2 atmosphere until NK cell isolation.
NK cell isolation: PBMC were centrifuged at 400 g for 10 min and re-suspended in EasySep buffer. NK cells were isolated using NK cell isolation kits from STEMCELL Technologies according to kit's manufacturers' instructions. NK cell purity and phenotype was assessed by trypan Blue and flow cytometry using the following antibody cocktail: anti-CD56PE, CD3 APC, and viability was determined using staining with Trypan Blue exclusion dye, and by flow cytometry using Near Infra-Red Fixable viability dye (Thermo Fisher).
CIML NK cell generation: Isolated NK cells were re-suspended at 2×10^6 cells/ml in XVIVO 10% Human Serum and the following concentrations IL-15 (50 ng/ml), IL-12 (10 ng/ml), IL-18(50 ng/ml) for 12 to 18 hrs. […]
(§2) NK cell fratricide (death directed at NK cells in the same culture) was assessed by flow cytometry following a 2 hr incubation with the CD38 ARM at indicated concentrations in the presence or absence of 500 μg/ml intravenous immune globulin (IVIG). […]

non-CIML NK cells = assay: NK cell fratricide assay, non-CIML control NK cells; type: cell-based; conditions: 2 hr
Protocol: as §1
NK cell isolation: PBMC were centrifuged at 400 g for 10 min and re-suspended in EasySep buffer. NK cells were isolated using NK cell isolation kits from STEMCELL Technologies according to kit's manufacturers' instructions. NK cell purity and phenotype was assessed by trypan Blue and flow cytometry using the following antibody cocktail: anti-CD56PE, CD3 APC, and viability was determined using staining with Trypan Blue exclusion dye, and by flow cytometry using Near Infra-Red Fixable viability dye (Thermo Fisher). […]
Purity and viability of NK cells and CIML NK cells: Among other things, the present disclosure provides highly pure and viable NK cell populations following isolation from PBMC. […] After an overnight incubation, purity and viability were assessed in the cultured cell populations. […]
as §2

[1] = system: CD56+CD138− CIML NK cells; assay: NK cell fratricide in patient bone marrow co-incubation; type: cell-based, human; conditions: co-incubated with patients bone marrow for 4 hrs; FIG. 4
Protocol: Patient bone marrow (3 ml) and blood (20 ml) were shipped at ambient temperature from Discovery Biosciences. Bone marrow was diluted 1:1 with PBS, and 50 μl of bone marrow-PBS mixture was aliquoted into 96 deep well plates. Bone marrow cells were incubated overnight until CIML cells were added next day.
PBMC were isolated from blood by Ficoll density gradient centrifugation. PBMC were centrifuged at 400 g for 10 min and re-suspended in EasySep buffer. NK cells were isolated using NK cell isolation kits from STEMCELL Technologies according to kit's manufacturers' instructions.
NK cells were re-suspended at 1×10^6 cells/ml in XVIVO15, 10% Human Serum, IL-15 (50 ng/ml), IL-12 (10 ng/ml), IL-18(50 ng/ml), and incubated for 18 hrs. Following overnight incubation with cytokines, NK cells were washed twice with PBS 5% Human Serum Albumin, counted and re-suspended at a cell density of 2×10^5 cells/ml of XVIVO15 media. Twenty microliters (4000 cells) were added per each well containing 50 μl of bone marrow: PBS mixture. […]
The assay was then incubated for 4 hrs. at 37° C. […] Finally, cells were re-suspended in 200 μl of FACS Buffer and analyzed using Attune Flow Cytometer. Data were analyzed using FlowJo software and graphed using GraphPad Prism. […]

CCCCC[C@@H]1NC(=O)[C@H](CCCNC(=N)N)NC(=O)[C@H](C)NC(=O)CSC[C@@H](C(=O)NCCOCCOCCOCCOCCOCCOCCn2nnc3c2CCC2C(CC3)C2COC(=O)N2CCC(C(=O)NCC(=O)N[C@H](CCC(=O)N[C@H](CCC(=O)N[C@H](CCC(=O)O)C(=O)N[C@H](CCC(=O)N[C@H](CCC(=O)NCC(=O)NCC(=O)N[C@@H](CC(=O)O)C(=O)N[C@H]3CSSC[C@@H](C(=O)N[C@H](C(=O)O)[C@@H](C)O)NC(=O)[C@H](Cc4c[nH]c5ccccc45)NC(=O)[C@H](C(C)C)NC(=O)[C@H](CC(C)C)NC(=O)[C@H](CCC(=O)O)NC(=O)CNC(=O)[C@H](CC(C)C)NC(=O)[C@H](Cc4c[nH]cn4)NC(=O)[C@H](Cc4c[nH]c5ccccc45)NC(=O)[C@H](C)NC3=O)C(=O)O)C(=O)O)C(=O)O)C(=O)O)CC2)NC(=O)[C@H](CC(=O)O)NC(=O)[C@H](CCCCC)NC(=O)[C@H](Cc2ccc(-c3ccccc3)cc2)NC(=O)[C@H](CC(C)C)NC(=O)[C@H](C(C)C)NC(=O)CNC(=O)[C@H](CC(=O)O)NC(=O)[C@H](Cc2c[nH]cn2)NC(=O)[C@H](Cc2ccc(O)cc2)NC1=O (some centres unmarked) [CD38 ARM]
increase in the percentage of dead NK cells (CIML NK cells; CIML NK cells, +/−IVIG, 2 hours post-incubation): no increase
NK cell fratricide (data normalized to DMSO treated control) (CIML NK cells; even the highest doses, FIG. 1 (B)): no apparent NK cell fratricide was detected
increase in dead NK cells (non-CIML NK cells; 25 uM vs DMSO control): 1.7%
increase in dead NK cells (non-CIML NK cells; highest concentration with IVIG vs DMSO IVIG control): 0.93%
frequencies of CD56+CD138− CIML NK cells (NK cell fratricide) [1]: did not change
